The supplement of paper PMC10733146

Experiments:
Assay in all cases: viability relative to DMSO control (fraction); higher = less drug effect (more viable cells)
Settings in all cases: 48 h
[1] = test system: primary AML patient cells (S085)
How it was run: (§1)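 The cells were primary mononuclear tumour cells, either fresh or cryopreserved, isolated by Ficoll from blood or bone marrow or derived from processed lymph node. Each well of a 384-well plate received 4 × 10^4 cells onto compounds pre-plated at five concentrations, with one well per concentration. The medium was RPMI-1640 with penicillin/streptomycin, L-glutamine and human serum, and plates stood at 37 °C and 5% CO2 for 48 h. Viability is reported as CellTiter-Glo luminescence relative to the median of 16 inner DMSO wells.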

[2] = test system: primary MCL patient cells (S041)
How it was run: as §1

[3] = test system: primary MCL patient cells (S063)
How it was run: as §1

[4] = test system: primary T-NHL patient cells (S058)
How it was run: as §1

[5] = test system: primary AML patient cells (S012)
How it was run: as §1

[6] = test system: primary AML patient cells (S056)
How it was run: as §1

[7] = test system: primary DLBCL patient cells (S049)
How it was run: as §1

[8] = test system: primary MCL patient cells (S068)
How it was run: as §1

[9] = test system: primary CLL patient cells (S031)
How it was run: as §1

[10] = test system: primary T-PLL patient cells (S008)
How it was run: as §1

[11] = test system: primary AML patient cells (S037)
How it was run: as §1

[12] = test system: primary BL patient cells (S005)
How it was run: as §1

[13] = test system: primary AML patient cells (S011)
How it was run: as §1

[14] = test system: primary DLBCL patient cells (S076)
How it was run: as §1

[15] = test system: primary AML patient cells (S081)
How it was run: as §1

[16] = test system: primary AML patient cells (S006)
How it was run: as §1

[17] = test system: primary CLL patient cells (S043)
How it was run: as §1

For O=C(c1cc(Cc2n[nH]c(=O)c3ccccc23)ccc1F)N1CCN(C(=O)C2CC2)CC1 [Olaparib], which viability ([1]; 0.024 µM) is on record?
Its viability is 0.861.

And the viability ([1]; 0.12 µM)?
The viability was 0.866.

And the viability ([1]; 0.6 µM)?
Its viability is 0.988.

What about the viability ([1]; 3 µM) of the same compound?
Its viability is 0.793.

And the viability ([1]; 15 µM)?
Its viability is 0.992.

What about the viability ([2]; 0.024 µM) of the same compound?
Its viability is 0.845.

And the viability ([2]; 0.12 µM)?
Its viability is 0.889.

And the viability ([2]; 0.6 µM)?
Its viability is 0.93.

And the viability ([2]; 3 µM)?
The viability was 0.933.

What about the viability ([2]; 15 µM) of the same compound?
The viability was 0.895.

What about the viability ([3]; 0.024 µM) of the same compound?
The viability was 0.872.

What about the viability ([3]; 0.12 µM) of the same compound?
The viability was 0.936.

And the viability ([3]; 0.6 µM)?
Its viability is 0.893.

What about the viability ([3]; 3 µM) of the same compound?
Its viability is 0.933.

What about the viability ([3]; 15 µM) of the same compound?
Its viability is 0.886.

And the viability ([4]; 0.024 µM)?
The viability was 1.09.

What about the viability ([4]; 0.12 µM) of the same compound?
The viability was 1.11.

What about the viability ([4]; 0.6 µM) of the same compound?
The viability was 1.18.

And the viability ([4]; 3 µM)?
Its viability is 1.13.

What about the viability ([4]; 15 µM) of the same compound?
The viability was 0.999.

What about the viability ([5]; 0.024 µM) of the same compound?
Its viability is 0.928.

And the viability ([5]; 0.12 µM)?
Its viability is 0.976.

What about the viability ([5]; 0.6 µM) of the same compound?
The viability was 0.955.

What about the viability ([5]; 3 µM) of the same compound?
Its viability is 0.925.

And the viability ([5]; 15 µM)?
Its viability is 0.876.

And the viability ([6]; 0.024 µM)?
Its viability is 1.05.

What about the viability ([6]; 0.12 µM) of the same compound?
The viability was 0.922.

What about the viability ([6]; 0.6 µM) of the same compound?
Its viability is 1.05.

What about the viability ([6]; 3 µM) of the same compound?
The viability was 1.15.

What about the viability ([6]; 15 µM) of the same compound?
The viability was 1.17.

And the viability ([7]; 0.024 µM)?
The viability was 0.857.

What about the viability ([7]; 0.12 µM) of the same compound?
The viability was 0.937.

And the viability ([7]; 0.6 µM)?
Its viability is 0.92.

What about the viability ([7]; 3 µM) of the same compound?
The viability was 0.894.

And the viability ([7]; 15 µM)?
Its viability is 0.735.

What about the viability ([8]; 0.024 µM) of the same compound?
Its viability is 0.896.

What about the viability ([8]; 0.12 µM) of the same compound?
Its viability is 0.838.

And the viability ([8]; 0.6 µM)?
The viability was 0.714.

And the viability ([8]; 3 µM)?
Its viability is 0.78.

And the viability ([8]; 15 µM)?
Its viability is 0.585.

What about the viability ([9]; 0.024 µM) of the same compound?
Its viability is 0.814.

What about the viability ([9]; 0.12 µM) of the same compound?
Its viability is 0.89.

And the viability ([9]; 0.6 µM)?
Its viability is 0.913.

What about the viability ([9]; 3 µM) of the same compound?
The viability was 0.829.

And the viability ([9]; 15 µM)?
Its viability is 0.854.

And the viability ([10]; 0.024 µM)?
Its viability is 0.945.

What about the viability ([10]; 0.12 µM) of the same compound?
The viability was 0.962.

What about the viability ([10]; 0.6 µM) of the same compound?
The viability was 0.957.

And the viability ([10]; 3 µM)?
Its viability is 0.978.

What about the viability ([10]; 15 µM) of the same compound?
Its viability is 0.94.

What about the viability ([11]; 0.024 µM) of the same compound?
The viability was 0.853.

What about the viability ([11]; 0.12 µM) of the same compound?
Its viability is 0.895.

And the viability ([11]; 0.6 µM)?
The viability was 0.915.

What about the viability ([11]; 3 µM) of the same compound?
Its viability is 0.859.

And the viability ([11]; 15 µM)?
Its viability is 0.776.

And the viability ([12]; 0.024 µM)?
Its viability is 0.938.

And the viability ([12]; 0.12 µM)?
Its viability is 0.985.

What about the viability ([12]; 0.6 µM) of the same compound?
The viability was 0.977.

And the viability ([12]; 3 µM)?
Its viability is 0.904.

What about the viability ([12]; 15 µM) of the same compound?
Its viability is 0.878.

What about the viability ([13]; 0.024 µM) of the same compound?
Its viability is 0.832.

What about the viability ([13]; 0.12 µM) of the same compound?
Its viability is 0.871.

And the viability ([13]; 0.6 µM)?
The viability was 0.873.

What about the viability ([13]; 3 µM) of the same compound?
Its viability is 0.799.

And the viability ([13]; 15 µM)?
The viability was 0.603.

What about the viability ([14]; 0.024 µM) of the same compound?
Its viability is 0.91.

And the viability ([14]; 0.12 µM)?
The viability was 1.05.

What about the viability ([14]; 0.6 µM) of the same compound?
Its viability is 1.12.

What about the viability ([14]; 3 µM) of the same compound?
Its viability is 1.

What about the viability ([14]; 15 µM) of the same compound?
Its viability is 0.955.

What about the viability ([15]; 0.024 µM) of the same compound?
The viability was 0.818.

And the viability ([15]; 0.12 µM)?
Its viability is 0.858.

And the viability ([15]; 0.6 µM)?
The viability was 0.889.

And the viability ([15]; 3 µM)?
Its viability is 0.884.

What about the viability ([15]; 15 µM) of the same compound?
Its viability is 0.894.

What about the viability ([16]; 0.024 µM) of the same compound?
The viability was 0.94.

What about the viability ([16]; 0.12 µM) of the same compound?
Its viability is 0.986.

What about the viability ([16]; 0.6 µM) of the same compound?
Its viability is 1.01.

And the viability ([16]; 3 µM)?
The viability was 0.884.

And the viability ([16]; 15 µM)?
Its viability is 0.722.

What about the viability ([17]; 0.024 µM) of the same compound?
The viability was 0.797.

And the viability ([17]; 0.12 µM)?
Its viability is 0.814.

What about the viability ([17]; 0.6 µM) of the same compound?
Its viability is 0.835.

What about the viability ([17]; 3 µM) of the same compound?
The viability was 0.867.

And the viability ([17]; 15 µM)?
The viability was 0.825.
